# Test results: patent publication US11312702B2, “Substituted quinoline-8-carbonitrile derivatives having androgen receptor degradation activity and uses thereof” (ACCUTAR BIOTECHNOLOGY INC., priority 2019, dated 2022)
# Legend:
# Format in all cases: cell-based
# androgen receptor (AR) = biological target: T1, androgen receptor (AR) (Homo sapiens, UniProt P10275, T878A); assay: AR degradation activity in LNCAP cells (Western blot); conditions: LNCAP cell line, 24 hours after administration; DC50 = concentration for 50% target protein degradation
# T1 construct: endogenous in cells; host or cells: LNCAP
# T1 sequence (P10275 1-920 T878A): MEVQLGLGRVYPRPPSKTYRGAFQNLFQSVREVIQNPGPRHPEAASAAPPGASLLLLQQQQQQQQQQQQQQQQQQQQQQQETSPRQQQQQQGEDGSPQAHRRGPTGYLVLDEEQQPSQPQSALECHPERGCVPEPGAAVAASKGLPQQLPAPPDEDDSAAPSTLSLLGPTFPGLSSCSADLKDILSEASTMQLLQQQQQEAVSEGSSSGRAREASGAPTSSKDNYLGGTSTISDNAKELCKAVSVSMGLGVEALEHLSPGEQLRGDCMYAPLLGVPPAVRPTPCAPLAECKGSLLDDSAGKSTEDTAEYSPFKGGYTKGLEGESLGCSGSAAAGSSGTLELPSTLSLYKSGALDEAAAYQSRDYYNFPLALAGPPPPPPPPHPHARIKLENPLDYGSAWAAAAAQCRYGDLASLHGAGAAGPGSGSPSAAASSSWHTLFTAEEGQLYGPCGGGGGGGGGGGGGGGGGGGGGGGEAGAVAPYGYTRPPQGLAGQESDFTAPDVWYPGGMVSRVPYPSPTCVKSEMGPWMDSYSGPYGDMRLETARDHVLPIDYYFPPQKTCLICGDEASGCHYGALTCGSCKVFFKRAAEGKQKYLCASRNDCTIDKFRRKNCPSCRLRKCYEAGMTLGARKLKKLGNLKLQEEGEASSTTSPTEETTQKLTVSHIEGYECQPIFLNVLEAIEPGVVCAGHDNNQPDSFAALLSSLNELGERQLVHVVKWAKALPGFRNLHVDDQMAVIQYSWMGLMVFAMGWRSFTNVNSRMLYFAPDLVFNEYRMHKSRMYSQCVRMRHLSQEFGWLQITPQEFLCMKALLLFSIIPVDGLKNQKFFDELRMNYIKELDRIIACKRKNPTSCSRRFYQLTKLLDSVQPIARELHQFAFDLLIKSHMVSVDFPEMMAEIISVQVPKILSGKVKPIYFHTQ
# Experimental: LNCAP, VCAP and 22Rv1 cells were plated in 24-well plates at 1.5×10E5 cells/well in the RPMI growth medium containing 10% FBS and 1% Penicillin Streptomycin, and then incubated at 37° C. overnight. The following day, the test compound was administered to the cells by using 1000× compound stock solution prepared in DMSO at various concentrations. After administration of the compound, the cells were then incubated at 37° C. for 24 hours. Upon completion, the cells were washed with PBS and protein was collected in Laemmli sample buffer (1×; VWR International). Proteins in cell lysate were separated by SDS-PAGE and transferred to Odyssey nitrocellulose membranes (Licor) with iblot® dry blotting transfer system (ThermoFisher). Nonspecific binding was blocked by incubating membranes with Intercept Blocking Buffer (Licor) for 1 hour at room temperature with gentle shaking. The membranes were then incubated overnight at 4° C. with Primary antibodies rabbit anti-AR (1:1,000, Cell Signaling, 5153) and mouse anti-GAPDH (1:5,000, Santa Cruz Biotechnology, sc-47724) diluted in Intercept Blocking Buffer containing 0.1% Tween 20. After washing 3 times with TBS-T, the membranes were incubated with IRDye® […] goat anti-mouse IgG (1:20,000, Licor) or IRDye®8000W goat anti-rabbit IgG (1:20,000, Licor) for 1 hour. After TBS-T washes, membranes were rinsed in TBS and scanned on Odyssey® CLx Imaging System (Licor). The bands were quantified using Image Studio™ Software (Licor).
# (§1) Table 4 summarizes the androgen receptor (AR) degradative activity and cell growth inhibition of exemplary compounds in (a) LNCAP, VCAP, and 22Rv1 cell lines 24 hours after administration of the compound; (b) RAMOS cell line 3 days after administration of the compound; and (c) VCAP cell line 6 days after administration of the compound. DC50: compound concentration needed for 50% target protein degradation.
# VCAP cells = assay: Cell growth inhibition for VCAP cells (CellTiter-Glo); conditions: Homo sapiens, 144 h; VCAP cell line, 6 days after administration, 0.1 nM R1881, charcoal-stripped FBS
# Experimental: VCAP cells (ATCC) were seeded in 96-well plates at 3000 cell/well in 80 μl of DMEM growth medium containing 10% charcoal-stripped FBS (CSS) and 1% Penicillin/Streptomycin. Cells were incubated at 37° C. overnight. The following day, the test compound was administered to the cells by using 10× compound stock solution prepared in growth medium at various concentrations. Four hours later, 0.1 nM R1881 (Sigma) was administered to the cells by using 10× compound stock solution prepared in growth medium. 0.1% DMSO with or without 0.1 nM R1881 was administered as control. Cells were then incubated at 37° C. for 6 days. Before CelTiter-Glo assay, the plates were equilibrated at room temperature for approximately 10 minutes. 100 ul of CellTiter-Glo® Reagent (Promega) was added to each well. The plates were then incubated at room temperature for 10 minutes and luminescence was recorded by EnSpire plate reader (PerkinElmer).
# as §1
# RAMOS cells = assay: Cell growth inhibition for Ramos cells (CellTiter-Glo); conditions: Homo sapiens, 72 h; RAMOS cell line, 3 days after administration
# Experimental: RAMOS cells (ATCC) were seeded in 96-well plates at 16,000 cell/well in 90 μl of RPMI growth medium containing 10% Heat-Inactivated Fetal Bovine Serum and 1% Penicillin/Streptomycin. The test compound was administered to the cells by using 10× compound stock solution prepared in growth medium at various concentrations. After administration of the compound, cells were then incubated at 37° C. for 3 days. Before CellTiter-Glo assay, the plates were equilibrated at room temperature for approximately 10 minutes. 100 ul of CellTiter-Glo® Reagent (Promega) was added to each well. The plates were then incubated at room temperature for 10 minutes and luminescence was recorded by EnSpire plate reader (PerkinElmer).
# as §1
DC50 (androgen receptor (AR)),GI50 (VCAP cells),GI50 (RAMOS cells),SMILES
0.2 nM,,,"CN(CC1CCN(c2ccc(C(=O)NC3C(C)(C)C(Oc4ccc(C#N)c5ncccc45)C3(C)C)cn2)CC1)C1CC(Oc2ccc3c(c2)C(=O)N(C2CCC(=O)NC2=O)C3=O)C1 (stereo not drawn) [Compound 2-9, N-((1,3-trans)-3-((8-cyanoquinolin-5-yl)oxy)-2,2,4,4-tetramethylcyclobutyl)-6-(4-((((1r,3r)-3-((2-(2,6-dioxopiperidin-3-yl)-1,3-dioxoisoindolin-5-yl)oxy)cyclobutyl)(methyl)amino)methyl)piperidin-1-yl)nicotinamide]"
2.8 nM,,,"CC(C)N(CC1CCN(c2ccc(C(=O)NC3C(C)(C)C(Oc4ccc(C#N)c5ncccc45)C3(C)C)cn2)CC1)C1CC(Oc2ccc3c(c2)C(=O)N(C2CCC(=O)NC2=O)C3=O)C1 (stereo not drawn) [Compound 2-11, N-((1,3-trans)-3-((8-cyanoquinolin-5-yl)oxy)-2,2,4,4-tetramethylcyclobutyl)-6-(4-((((1r,3r)-3-((2-(2,6-dioxopiperidin-3-yl)-1,3-dioxoisoindolin-5-yl)oxy)cyclobutyl)(isopropyl)amino)methyl)piperidin-1-yl)nicotinamide]"
0.2 nM,11.5 nM,> 3000 nM,CC1(C)[C@H](NC(=O)c2cnc(N3CCC(CN4CCN(c5ccc6c(c5)CN([C@H]5CCC(=O)NC5=O)C6=O)CC4)CC3)nc2)C(C)(C)[C@H]1Oc1ccc(C#N)c2ncccc12 [Compound 2-30]
0.6 nM,9.2 nM,> 3000 nM,"CC1(C)C(NC(=O)c2ccc(N3CCC(CN4CCN(c5ccc6c(c5)CN([C@H]5CCC(=O)NC5=O)C6=O)CC4)CC3)nn2)C(C)(C)C1Oc1ccc(C#N)c2ncccc12 (stereo partly drawn) [Compound 2-31, N-((1,3-trans)-3-((8-cyanoquinolin-5-yl)oxy)-2,2,4,4-tetramethylcyclobutyl)-6-(4-((4-(2-((S)-2,6-dioxopiperidin-3-yl)-1-oxoisoindolin-5-yl)piperazin-1-yl)methyl)piperidin-1-yl)pyridazine-3-carboxamide]"
0.4 nM,,,"CC1(C)C(NC(=O)c2ccc(N3CCC(CN4CCN(c5cc6c(cc5F)C(=O)N(C5CCC(=O)NC5=O)C6=O)CC4)CC3)nn2)C(C)(C)C1Oc1ccc(C#N)c2ncccc12 (stereo not drawn) [Compound 2-35, N-((1,3-trans)-3-((8-cyanoquinolin-5-yl)oxy)-2,2,4,4-tetramethylcyclobutyl)-6-(4-((4-(2-(2,6-dioxopiperidin-3-yl)-6-fluoro-1,3-dioxoisoindolin-5-yl)piperazin-1-yl)methyl)piperidin-1-yl)pyridazine-3-carboxamide]"
1.4 nM,,,"CC1(C)C(NC(=O)c2ccc(N3CCC(CN4CCN(c5cc6c(cc5F)C(=O)N(C5CCC(=O)NC5=O)C6=O)CC4)CC3)nc2)C(C)(C)C1Oc1ccc(C#N)c2ncccc12 (stereo not drawn) [Compound 2-36, N-((1,3-trans)-3-((8-cyanoquinolin-5-yl)oxy)-2,2,4,4-tetramethylcyclobutyl)-6-(4-((4-(2-(2,6-dioxopiperidin-3-yl)-6-fluoro-1,3-dioxoisoindolin-5-yl)piperazin-1-yl)methyl)piperidin-1-yl)nicotinamide]"
0.8 nM,,,"CC1(C)C(NC(=O)c2ccc(N3CCC(CN4CCN(c5cc6c(cc5F)C(=O)N(C5CCC(=O)NC5=O)C6=O)CC4)CC3)cc2)C(C)(C)C1Oc1ccc(C#N)c2ncccc12 (stereo not drawn) [Compound 2-47, N-((1,3-trans)-3-((8-cyanoquinolin-5-yl)oxy)-2,2,4,4-tetramethylcyclobutyl)-4-(4-((4-(2-(2,6-dioxopiperidin-3-yl)-6-fluoro-1,3-dioxoisoindolin-5-yl)piperazin-1-yl)methyl)piperidin-1-yl)benzamide]"
3.8 nM,,,"CC1(C)C(NC(=O)c2ccc(N3CCC(CN4CCN(c5cc6c(cc5F)C(=O)N(C5CCC(=O)NC5=O)C6=O)CC4)CC3)c(F)c2)C(C)(C)C1Oc1ccc(C#N)c2ncccc12 (stereo not drawn) [Compound 2-48, N-((1,3-trans))-3-((8-cyanoquinolin-5-yl)oxy)-2,2,4,4-tetramethylcyclobutyl)-4-(4-((4-(2-(2,6-dioxopiperidin-3-yl)-6-fluoro-1,3-dioxoisoindolin-5-yl)piperazin-1-yl)methyl)piperidin-1-yl)-3-fluorobenzamide]"
0.6 nM,,,"CC1(C)C(NC(=O)c2cnc(N3CCC(CN4CCN(c5cc6c(cc5F)C(=O)N(C5CCC(=O)NC5=O)C6=O)CC4)CC3)nc2)C(C)(C)C1Oc1ccc(C#N)c2ncccc12 (stereo not drawn) [Compound 2-50, N-((1,3-trans)-3-((8-cyanoquinolin-5-yl)oxy)-2,2,4,4-tetramethylcyclobutyl)-2-(4-((4-(2-(2,6-dioxopiperidin-3-yl)-6-fluoro-1,3-dioxoisoindolin-5-yl)piperazin-1-yl)methyl)piperidin-1-yl)pyrimidine-5-carboxamide]"
0.5 nM,11 nM,> 3000 nM,"CC1(C)[C@H](NC(=O)c2ccc(N3CCC(CN4CCN(c5ccc6c(c5)CN(C5CCC(=O)NC5=O)C6=O)CC4)CC3)c(F)c2)C(C)(C)[C@H]1Oc1ccc(C#N)c2ncccc12 (stereo partly shown) [Compound 2-51, N-((1r,3r)-3-((8-cyanoquinolin-5-yl)oxy)-2,2,4,4-tetramethylcyclobutyl)-4-(4-((4-(2-(2,6-dioxopiperidin-3-yl)-1-oxoisoindolin-5-yl)piperazin-1-yl)methyl)piperidin-1-yl)-3-fluorobenzamide]"
1.3 nM,,,"CC1(C)C(NC(=O)c2cnc(N3CCC(CN4CCN(c5cc6c(cc5F)C(=O)N(C5CCC(=O)NC5=O)C6=O)CC4)CC3)c(F)c2)C(C)(C)C1Oc1ccc(C#N)c2ncccc12 (stereo not drawn) [Compound 2-52, N-((1,3-trans)-3-((8-cyanoquinolin-5-yl)oxy)-2,2,4,4-tetramethylcyclobutyl)-6-(4-((4-(2-(2,6-dioxopiperidin-3-yl)-6-fluoro-1,3-dioxoisoindolin-5-yl)piperazin-1-yl)methyl)piperidin-1-yl)-5-fluoronicotinamide]"
0.4 nM,11.9 nM,,"CC1(C)[C@H](NC(=O)c2ccc(N3CCC(CN4CCN(c5cc6c(cc5F)C(=O)N([C@H]5CCC(=O)NC5=O)C6)CC4)CC3)c(F)c2)C(C)(C)[C@H]1Oc1ccc(C#N)c2ncccc12 [Compound 2-53, N-((1,3-trans)-3-((8-cyanoquinolin-5-yl)oxy)-2,2,4,4-tetramethylcyclobutyl)-4-(4-((4-(2-((S)-2,6-dioxopiperidin-3-yl)-6-fluoro-1-oxoisoindolin-5-yl)piperazin-1-yl)methyl)piperidin-1-yl)-3-fluorobenzamide]"
